From ChEMBL document CHEMBL4270563, “Neurogenic and neuroprotective donepezil-flavonoid hybrids with sigma-1 affinity and inhibition of key enzymes in Alzheimer's disease” (Eur J Med Chem, 2018)
Activity calls are given as the source filed them. The calls are words filed in the database; no cut-off is given here.

Key:
Acetylcholinesterase [1] = target: T1, Acetylcholinesterase (Homo sapiens, UniProt P22303); test: Inhibition of recombinant human AChE expressed in HEK293 cells using varying levels of acetylthiocholine iodide as substrate by Lineweaver-burk plot analysis
[2] = Selectivity ratio of Ki for displacement of [3H]DTG from sigma2 receptor in rat liver membranes to Ki for displacement of (+)-[3H]pentazocine from guinea pig brain membrane sigma1 receptor; format: cell membranes
Cholinesterase = Cholinesterase (Homo sapiens, UniProt P06276); test: Inhibition of human serum BuChE using butyrylthiocholine as substrate pretreated for 5 mins followed by substrate addition and measured for 5 mins by Ellman's method
[3] = target: T2, Amine oxidase [flavin-containing] A (Homo sapiens, UniProt P21397); test: Inhibition of recombinant human MAO-A expressed in baculovirus infected BTI insect cells using p-tyramine as substrate pretreated for 15 mins followed by substrate addition by horse-radish peroxidase/amplex red-based fluorescence method
T2 sequence (P21397 whole entry): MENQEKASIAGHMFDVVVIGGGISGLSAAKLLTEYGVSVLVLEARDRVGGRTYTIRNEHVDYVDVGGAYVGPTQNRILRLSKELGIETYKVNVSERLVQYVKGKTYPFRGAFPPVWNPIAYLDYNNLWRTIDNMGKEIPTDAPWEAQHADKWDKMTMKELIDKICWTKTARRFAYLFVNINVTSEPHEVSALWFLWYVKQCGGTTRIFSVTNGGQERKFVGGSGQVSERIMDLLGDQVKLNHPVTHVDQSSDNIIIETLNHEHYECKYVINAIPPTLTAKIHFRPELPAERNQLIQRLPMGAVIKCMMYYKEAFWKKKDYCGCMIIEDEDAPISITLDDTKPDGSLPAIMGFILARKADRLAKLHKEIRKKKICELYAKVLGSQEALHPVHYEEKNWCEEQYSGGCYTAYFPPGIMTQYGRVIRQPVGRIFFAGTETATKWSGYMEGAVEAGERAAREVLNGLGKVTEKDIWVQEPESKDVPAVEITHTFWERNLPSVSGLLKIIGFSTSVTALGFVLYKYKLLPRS

in vitro = conditions: PAMPA, pH 7.4
Description: Permeability of the compound in pH 7.4 PBS by PAMPA-BBB assay

[4] = target: Sigma non-opioid intracellular receptor 1 (Cavia porcellus, UniProt Q60492); test: Displacement of (+)-[3H]pentazocine from guinea pig brain membrane sigma1 receptor by liquid scintillation counting method
Homo sapiens = species: Homo sapiens; test: Selectivity index, ratio of IC50 for human serum BuChE to IC50 for recombinant human AChE expressed in HEK293 cells; format: cell-based
[5] = target: T3, Amine oxidase [flavin-containing] B (Homo sapiens, UniProt P27338); test: biochemical; format: cell-based
T3 sequence (P27338 whole entry): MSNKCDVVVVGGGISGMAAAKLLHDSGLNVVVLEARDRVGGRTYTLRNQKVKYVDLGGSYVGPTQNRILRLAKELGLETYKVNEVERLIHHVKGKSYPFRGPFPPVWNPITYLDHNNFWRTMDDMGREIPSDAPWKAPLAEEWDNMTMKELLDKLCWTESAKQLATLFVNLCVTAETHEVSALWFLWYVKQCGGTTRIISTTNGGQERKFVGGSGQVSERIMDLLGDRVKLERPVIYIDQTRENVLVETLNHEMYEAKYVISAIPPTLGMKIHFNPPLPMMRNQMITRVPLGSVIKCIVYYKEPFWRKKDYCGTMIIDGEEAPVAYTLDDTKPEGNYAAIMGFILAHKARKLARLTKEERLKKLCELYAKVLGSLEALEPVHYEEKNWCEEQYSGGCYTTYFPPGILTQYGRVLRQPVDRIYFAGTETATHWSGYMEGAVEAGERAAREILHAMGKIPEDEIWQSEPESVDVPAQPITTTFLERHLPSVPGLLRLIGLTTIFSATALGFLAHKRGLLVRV
Description: Inhibition of recombinant human MAO-B expressed in baculovirus infected BTI insect cells using p-tyramine as substrate pretreated for 15 mins followed by substrate addition by horse-radish peroxidase/amplex red-based fluorescence method

[6] = Antioxidant activity assessed as trolox equivalent of AAPH-induced radical scavenging activity at 10 uM pretreated for 15 mins followed by APPH challenge measured every minute for 80 mins by ORAC-FL assay; format: functional
[7] = target: T4, Sigma intracellular receptor 2 (Rattus norvegicus, UniProt Q5U3Y7); test: Displacement of [3H]DTG from sigma2 receptor in rat liver membranes by liquid scintillation counting method; format: cell membranes, Membrane
T4 sequence (Q5U3Y7 whole entry): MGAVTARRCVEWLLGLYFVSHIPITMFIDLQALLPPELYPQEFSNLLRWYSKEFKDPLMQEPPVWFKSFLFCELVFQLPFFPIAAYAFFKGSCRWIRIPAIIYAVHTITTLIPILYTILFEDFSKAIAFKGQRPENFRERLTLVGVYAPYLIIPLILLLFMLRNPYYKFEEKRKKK

[8] = target: T5, Polyunsaturated fatty acid 5-lipoxygenase (Homo sapiens) (UniProt P09917); test: Inhibition of human 5-lipoxygenase at 10 uM using arachidonic acid as substrate pretreated for 10 mins followed by substrate and ATP addition and measured after 20 mins by […] probe based fluorescence assay relative to control
T5 sequence (whole entry): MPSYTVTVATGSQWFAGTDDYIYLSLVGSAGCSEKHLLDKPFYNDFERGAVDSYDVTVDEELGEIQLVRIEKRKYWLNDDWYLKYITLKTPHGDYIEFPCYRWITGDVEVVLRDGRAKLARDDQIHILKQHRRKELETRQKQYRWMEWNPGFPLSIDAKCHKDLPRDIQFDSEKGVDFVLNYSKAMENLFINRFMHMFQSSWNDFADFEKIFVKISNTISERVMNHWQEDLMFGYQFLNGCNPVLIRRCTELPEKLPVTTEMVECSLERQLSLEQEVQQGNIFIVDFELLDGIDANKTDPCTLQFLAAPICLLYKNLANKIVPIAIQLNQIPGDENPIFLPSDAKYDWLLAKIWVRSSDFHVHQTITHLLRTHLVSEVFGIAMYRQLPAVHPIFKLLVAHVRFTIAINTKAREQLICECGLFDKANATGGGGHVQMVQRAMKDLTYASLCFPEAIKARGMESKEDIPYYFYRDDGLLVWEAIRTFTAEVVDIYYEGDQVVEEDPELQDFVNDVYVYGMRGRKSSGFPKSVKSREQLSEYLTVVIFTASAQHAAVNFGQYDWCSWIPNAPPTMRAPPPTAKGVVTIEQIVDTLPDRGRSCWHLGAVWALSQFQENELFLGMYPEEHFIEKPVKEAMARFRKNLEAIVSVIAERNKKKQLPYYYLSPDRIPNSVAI

Acetylcholinesterase [9] = target: T1, Acetylcholinesterase; test: Inhibition of recombinant human AChE expressed in HEK293 cells using acetylthiocholine iodide as substrate pretreated for 5 mins followed by substrate addition and measured for 5 mins by Ellman's method
[10] = target: T6, Polyunsaturated fatty acid 5-lipoxygenase (Homo sapiens, UniProt P09917); test: Inhibition of human 5-lipoxygenase using arachidonic acid as substrate pretreated for 10 mins followed by substrate and ATP addition and measured after 20 mins by H2DCFDA probe based fluorescence assay
T6 sequence (P09917 whole entry): T5 sequence (whole entry)

[11] = Antioxidant activity assessed as trolox equivalent of AAPH-induced radical scavenging activity pretreated for 15 mins followed by APPH challenge measured every minute for 80 mins by ORAC-FL assay; format: functional

T1 sequence (P22303 whole entry): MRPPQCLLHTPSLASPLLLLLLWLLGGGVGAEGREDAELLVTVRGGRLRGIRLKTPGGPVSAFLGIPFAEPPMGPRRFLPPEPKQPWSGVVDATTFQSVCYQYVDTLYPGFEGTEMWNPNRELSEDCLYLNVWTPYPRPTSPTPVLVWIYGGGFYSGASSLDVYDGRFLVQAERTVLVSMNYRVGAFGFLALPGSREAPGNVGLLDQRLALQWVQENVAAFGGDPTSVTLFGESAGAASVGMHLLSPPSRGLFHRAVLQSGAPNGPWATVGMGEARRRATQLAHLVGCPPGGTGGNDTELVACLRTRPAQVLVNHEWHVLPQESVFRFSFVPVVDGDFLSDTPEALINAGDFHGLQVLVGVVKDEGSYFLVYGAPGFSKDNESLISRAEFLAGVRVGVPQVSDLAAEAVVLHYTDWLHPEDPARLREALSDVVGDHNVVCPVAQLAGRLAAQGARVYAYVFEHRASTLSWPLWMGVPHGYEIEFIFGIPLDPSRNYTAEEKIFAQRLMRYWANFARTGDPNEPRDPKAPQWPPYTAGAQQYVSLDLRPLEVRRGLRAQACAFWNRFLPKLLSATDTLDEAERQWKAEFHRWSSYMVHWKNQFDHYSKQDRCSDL
Cholinesterase, sequence (P06276 whole entry): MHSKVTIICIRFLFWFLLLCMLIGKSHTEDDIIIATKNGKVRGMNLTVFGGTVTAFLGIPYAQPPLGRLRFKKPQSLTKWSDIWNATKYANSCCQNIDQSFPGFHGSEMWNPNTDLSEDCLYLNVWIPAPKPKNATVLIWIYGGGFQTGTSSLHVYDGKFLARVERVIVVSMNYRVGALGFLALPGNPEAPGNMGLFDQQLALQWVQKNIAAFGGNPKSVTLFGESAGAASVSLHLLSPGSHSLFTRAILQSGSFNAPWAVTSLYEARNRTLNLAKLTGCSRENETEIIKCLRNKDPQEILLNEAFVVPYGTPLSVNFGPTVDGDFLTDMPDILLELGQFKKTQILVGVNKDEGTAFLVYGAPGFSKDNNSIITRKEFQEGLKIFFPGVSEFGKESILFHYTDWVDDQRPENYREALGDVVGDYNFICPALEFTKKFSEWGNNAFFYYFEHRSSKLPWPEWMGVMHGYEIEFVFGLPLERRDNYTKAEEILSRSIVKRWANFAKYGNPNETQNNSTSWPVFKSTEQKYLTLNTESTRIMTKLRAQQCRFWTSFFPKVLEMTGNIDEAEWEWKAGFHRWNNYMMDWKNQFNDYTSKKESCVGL
Sigma non-opioid intracellular receptor 1, sequence (Q60492 whole entry): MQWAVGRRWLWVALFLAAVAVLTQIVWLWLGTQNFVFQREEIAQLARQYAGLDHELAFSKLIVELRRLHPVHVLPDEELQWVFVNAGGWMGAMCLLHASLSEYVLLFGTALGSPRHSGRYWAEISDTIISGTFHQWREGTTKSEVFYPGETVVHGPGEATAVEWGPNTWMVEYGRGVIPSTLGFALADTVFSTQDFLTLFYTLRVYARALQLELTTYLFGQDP

| SMILES | Ki (Acetylcholinesterase [1]) [µM] | Ratio Ki [2] | IC50 (Cholinesterase) [µM] | IC50 [3] [µM] | Papp (in vitro) [×10⁻⁶ cm/s] | Ki [4] [µM] | Ratio IC50 (Homo sapiens) | IC50 [5] [µM] | Activity [6] | Ki [7] [µM] | inhibition [8] [%] | IC50 (Acetylcholinesterase [9]) [µM] | IC50 [10] [µM] | Activity (umolequiv/umol) [11] |
| --- | --- | --- | --- | --- | --- | --- | --- | --- | --- | --- | --- | --- | --- | --- |
| COc1cc2[nH]c(C(=O)NCCC3CCN(Cc4ccccc4)CC3)cc(=O)c2cc1OC | 0.06 | 13 | > 10 | > 100 | 5.3 | 0.0363 | > 59 | > 100 | inactive | 0.487 | 31 | 0.17 | > 100 |  |
| COc1cc2oc(C(=O)NCCCC3CCN(Cc4ccccc4)CC3)cc(=O)c2cc1OC | 0.021 |  | > 10 | > 100 | 5 |  | > 91 | > 100 | inactive |  | 48 | 0.11 | > 100 |  |
| COc1ccc2oc(C(=O)OCC3CCN(Cc4ccccc4)CC3)cc(=O)c2c1 |  |  | > 10 |  | 6.1 |  | > 1.3 |  |  |  |  | 7.49 |  |  |
| Nc1ccc2oc(C(=O)NCCC3CCN(Cc4ccccc4)CC3)cc(=O)c2c1 | 0.062 | 290 | 4.3 | > 100 | 7.6 | 0.00145 | 105 | > 100 |  | 0.421 |  | 0.041 | 28.9 | 0.9 |
| COc1ccc2c(=O)cc(C(=O)NCCC3CCN(Cc4ccccc4)CC3)oc2c1 |  |  | 9.9 | > 100 | 7.6 |  | 300 | > 100 |  |  | 31 | 0.033 | > 100 |  |
| COc1cc2oc(C(=O)OCCC3CCN(Cc4ccccc4)CC3)cc(=O)c2cc1OC | 0.011 |  | > 10 |  |  |  |  |  |  |  |  | 0.056 |  |  |
| O=C(NCCC1CCN(Cc2ccccc2)CC1)c1cc(=O)c2c(O)cc(O)cc2o1 |  |  | > 10 |  | 3.7 |  | > 17 |  |  |  |  | 0.58 | 95.1 | 0.8 |
| COc1cccc2oc(C(=O)NCCC3CCN(Cc4ccccc4)CC3)cc(=O)c12 |  |  | > 10 |  |  |  | > 12 |  |  |  |  | 0.87 |  |  |
| O=C(NC1CCN(Cc2ccccc2)CC1)c1cc(=O)c2cc(O)ccc2o1 |  |  | > 10 |  | 1.9 |  | > 4.2 |  |  |  | 48 | 2.36 | > 100 |  |
| COc1ccc2[nH]c(C(=O)NCCC3CCN(Cc4ccccc4)CC3)cc(=O)c2c1 |  | 64 | > 10 | > 100 | 12 | 0.0072 | > 11 | > 100 | inactive | 0.459 | 31 | 0.88 | > 100 |  |
| COc1cc2nc(C(=O)NCCC3CCN(Cc4ccccc4)CC3)cc(OC)c2cc1OC |  |  | 8.79 |  | 13 |  | 14 |  |  |  |  | 0.62 |  |  |
| COc1ccc2oc(C(=O)NCCC3CCN(Cc4ccccc4)CC3)cc(=O)c2c1 |  |  | 6.5 | > 100 | 10 |  | 38 | > 100 |  |  | 33 | 0.17 | > 100 |  |
| COc1ccc2oc(C(=O)NCC3CCN(Cc4ccccc4)CC3)cc(=O)c2c1 |  |  | > 10 |  | 6.8 |  | > 2.8 |  |  |  |  | 3.61 |  |  |
| O=C(NCCC1CCN(Cc2ccccc2)CC1)c1cc(=O)c2ccccc2o1 | 0.057 |  | 5.09 |  | 6.7 |  | 46 |  |  |  | 24 | 0.11 | > 100 |  |
| O=C(NCCCC1CCN(Cc2ccccc2)CC1)c1cc(=O)c2cc(O)ccc2o1 | 0.011 | 87 | > 10 | > 100 | 4.5 | 0.00348 | > 435 | > 100 |  | 0.301 |  | 0.023 | 15.1 | 1.3 |
| COc1ccc2c(=O)cc(C(=O)NCCC3CCN(Cc4ccccc4)CC3)[nH]c2c1 |  | 8 | > 10 | 72.7 | 10.9 | 0.0452 | > 22 | 56.4 | inactive | 0.376 | 31 | 0.45 | > 100 |  |
| O=C(NCCC1CCN(Cc2ccccc2)CC1)c1cc(=O)c2cc(O)c(O)cc2o1 |  | 10 | > 10 | 70.5 | 3.2 | 0.027 | > 2.4 | 37.9 |  | 0.278 |  | 4.13 | 4.2 | 1.7 |
| COc1cc2oc(C(=O)NCC3CCN(Cc4ccccc4)CC3)cc(=O)c2cc1OC |  |  | > 10 |  |  |  | > 6.8 |  |  |  | 45 | 1.46 | > 100 |  |
| COc1cc(OC)c2c(=O)cc(C(=O)NCCC3CCN(Cc4ccccc4)CC3)oc2c1 |  |  | 6.3 |  | 8.8 |  | 20 |  |  |  |  | 0.32 |  |  |
| COc1ccc2oc(C(=O)NCCCC3CCN(Cc4ccccc4)CC3)cc(=O)c2c1 |  |  | 5.8 | > 100 | 10.6 |  | 16 | > 100 | inactive |  |  | 0.37 | 82.4 |  |
| COc1cccc2c(=O)cc(C(=O)NCCC3CCN(Cc4ccccc4)CC3)[nH]c12 |  |  | > 10 | 52.4 | 15.3 |  | > 6.1 | 71.6 | inactive |  | 47 | 1.64 | > 100 |  |
